Test results taken from patent US20240174622A1, “COMPOUND AND RADIOACTIVE LABELING COMPOUND” (NIHON MEDI-PHYSICS CO., LTD., priority 2021, published 2024).

Experiments:
[1] = test system: LNCaP tumor-transplanted mouse; experiment: Internal radioactivity distribution using LNCaP tumor-transplanted mouse; type: in vivo
Experimental: (§1) The animal test was performed in compliance with the guidelines of Kyoto University Animal Experiment Committee. Male CB17/IcrJcl-Prkdc^scid mice were purchased from CLEA Japan, Inc. The animals were kept under 12 h/12 h, day/night cycle conditions and fed ad libitum with food and water. LNCaP cells (1.0×10^7 cells/mouse) or PC-3 cells (1.0×10^7 cells/mouse) were suspended in a mixture of PBS and Matrigel manufactured by Corning Life Sciences (1:1, 150 μL) and the suspension was subcutaneously transplanted to the right shoulder of mice under isoflurane anesthesia. Thereafter, the mice were kept for 40 to 60 days.
LNCaP or PC-3 tumor-implanted mice were administered saline solutions (185 kBq, 100 μL) of [^111In]In-PSMA-DA1 or [^111In]In-PSMA-DB from the tail vein (n=3 each). Mice were euthanized 1, 4, 24, 48, 96, and 192 hours after administration. Thereafter, blood and each organ were recovered, and the mass and radioactivity of the organs were measured.
The percentage (% ID) of the radioactivity amount to the administered radioactivity amount (injected dose) is shown as the value (% ID/g) divided by the blood mass or the organ mass (g).
LNCaP tumor-implanted mice prepared by the same method as in Example 1-1 were administered a saline solution (241 kBq/100 μL) of [^111In]In-PtDA from the tail vein (n=3). Mice were euthanized 1, 24, and 48 hours after administration. Thereafter, blood and each organ were recovered, and the mass and radioactivity of the organs were measured.
LNCaP tumor-implanted mice prepared by the same method as in Example 1-1 were administered a saline solution (259 kBq/100 μL each) of each of the radiolabeled compounds in Examples 3-1 to 3-3 or Comparative Examples 2-1 to 2-2 from the tail vein (n=2 to 3). Mice were euthanized 1, 4, 24, 48, 96, and 192 hours after administration. Thereafter, blood and each organ were recovered, and the mass and radioactivity of the organs were measured.
as §1, with “LNCaP cells (4.3×10^6 cells/mouse) or” for “LNCaP cells (1.0×10^7 cells/mouse) or”, “PC-3 cells (3.3×10^6 cells/mouse) were” for “PC-3 cells (1.0×10^7 cells/mouse) were”, “shoulder of CB17/IcrJcl-Prkdc^scid mice under” for “shoulder of mice under”
Mice were euthanized 1, 4, 24, 48, 96, and 192 hours after administration. Thereafter, blood and each organ were recovered, and the mass and radioactivity of the organs were measured.
The results are shown in Table 12 (Mean value±standard deviation, n=3).

[2] = target: human serum albumin (HSA) (Homo sapiens, UniProt P02768); experiment: Evaluation of binding to albumin (HSA solution, PBS control); conditions: left to stand in HSA solution (45 mg/mL)
Sequence of human serum albumin (HSA) (P02768 25-609): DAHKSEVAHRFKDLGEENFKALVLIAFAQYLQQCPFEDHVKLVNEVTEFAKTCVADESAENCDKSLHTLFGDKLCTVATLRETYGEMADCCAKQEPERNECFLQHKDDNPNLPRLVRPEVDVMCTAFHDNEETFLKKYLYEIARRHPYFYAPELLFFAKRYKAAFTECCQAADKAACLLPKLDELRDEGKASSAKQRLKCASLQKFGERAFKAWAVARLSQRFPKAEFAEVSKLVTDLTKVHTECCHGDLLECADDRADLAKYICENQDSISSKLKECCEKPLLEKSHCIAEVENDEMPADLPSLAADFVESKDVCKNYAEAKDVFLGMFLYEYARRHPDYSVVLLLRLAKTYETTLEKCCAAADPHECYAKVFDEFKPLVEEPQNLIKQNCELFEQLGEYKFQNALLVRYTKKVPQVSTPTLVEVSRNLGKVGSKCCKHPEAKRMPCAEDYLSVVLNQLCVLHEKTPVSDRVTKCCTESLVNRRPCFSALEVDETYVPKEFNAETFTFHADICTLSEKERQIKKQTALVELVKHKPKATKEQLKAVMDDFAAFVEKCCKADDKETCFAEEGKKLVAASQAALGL
Experimental: Thereafter, the reaction liquids were added to a spin column (Sephadex G-100; manufactured by Cytiva), and centrifuged at 1500×g at 4° C. for 2 minutes. After separation, the radioactivity for each of the column and the eluate was measured with a gamma counter.
When a compound to be evaluated binds to albumin to form a composite, the compound passes through the column because of the increased molecular size.
As in Examples described above, PBS and human albumin were used to evaluate binding to albumin.
Thereafter, the reaction liquid was added to a spin column (Sephadex G-50; manufactured by Cytiva), and centrifuged at 1500×g at 4° C. for 2 minutes. After separation, the radioactivity of the column and the eluate was measured with a gamma counter.

For `O=C([O-])CN(CCN(CCc1ccc(NC(=O)[C@H](CCCCNC(=O)CCC(=O)NCCCC[C@H](NC(=O)N[C@@H](CCC(=O)O)C(=O)O)C(=O)O)NC(=O)CCCc2ccc(I)cc2)cc1)CCN(CC(=O)[O-])Cc1cccc(C(=O)[O-])n1)Cc1cccc(C(=O)[O-])n1.[111In+3]` [[^111In]In-Neunpa-2], the Blood ([1]; 1 h after administration) was 13.6 ± 0.68 % ID/g, the Brain ([1]; 1 h after administration) was 0.18 ± 0.00 % ID/g and the Heart ([1]; 1 h after administration) was 3.74 ± 0.04 % ID/g. For the same compound, the Intestine ([1]; 1 h after administration) was 1.22 ± 0.30 % ID/g, the Kidney ([1]; 1 h after administration) was 90.1 ± 5.81 % ID/g and the “LNCaP Tumor” value ([1]; 1 h after administration) was 7.44 ± 0.18 % ID/g. It also gave a Liver ([1]; 1 h after administration) of 2.23 ± 0.34 % ID/g, a Lung ([1]; 1 h after administration) of 8.99 ± 1.68 % ID/g and a Muscle ([1]; 1 h after administration) of 1.09 ± 0.25 % ID/g. The Pancreas ([1]; 1 h after administration) was 1.61 ± 0.42 % ID/g, the Spleen ([1]; 1 h after administration) was 16.9 ± 2.52 % ID/g and the “Stomach (% ID)” value ([1]; 1 h after administration) was 0.23 ± 0.06 % ID. The Blood ([1]; 4 h after administration) was 5.73 ± 0.26 % ID/g, the Brain ([1]; 4 h after administration) was 0.12 ± 0.01 % ID/g and the Heart ([1]; 4 h after administration) was 1.78 ± 0.15 % ID/g. For the same compound, the Intestine ([1]; 4 h after administration) was 1.05 ± 0.29 % ID/g, the Kidney ([1]; 4 h after administration) was 126 ± 17.6 % ID/g and the “LNCaP Tumor” value ([1]; 4 h after administration) was 8.57 ± 0.61 % ID/g. It also gave a Liver ([1]; 4 h after administration) of 1.29 ± 0.02 % ID/g, a Lung ([1]; 4 h after administration) of 4.14 ± 0.61 % ID/g and a Muscle ([1]; 4 h after administration) of 0.61 ± 0.11 % ID/g. The Pancreas ([1]; 4 h after administration) was 0.82 ± 0.05 % ID/g, the Spleen ([1]; 4 h after administration) was 8.16 ± 3.89 % ID/g and the “Stomach (% ID)” value ([1]; 4 h after administration) was 0.29 ± 0.18 % ID. The Blood ([1]; 24 h after administration) was 2.48 ± 0.07 % ID/g, the Brain ([1]; 24 h after administration) was 0.08 ± 0.01 % ID/g and the Heart ([1]; 24 h after administration) was 0.79 ± 0.08 % ID/g. For the same compound, the Intestine ([1]; 24 h after administration) was 0.68 ± 0.11 % ID/g, the Kidney ([1]; 24 h after administration) was 101 ± 18.7 % ID/g and the “LNCaP Tumor” value ([1]; 24 h after administration) was 8.61 ± 1.06 % ID/g. The Liver ([1]; 24 h after administration) was 1.00 ± 0.15 % ID/g, the Lung ([1]; 24 h after administration) was 2.26 ± 0.29 % ID/g and the Muscle ([1]; 24 h after administration) was 0.27 ± 0.11 % ID/g. The Pancreas ([1]; 24 h after administration) was 0.65 ± 0.05 % ID/g, the Spleen ([1]; 24 h after administration) was 2.67 ± 0.59 % ID/g and the “Stomach (% ID)” value ([1]; 24 h after administration) was 0.13 ± 0.06 % ID. The Blood ([1]; 48 h after administration) was 0.20 ± 0.02 % ID/g, the Brain ([1]; 48 h after administration) was 0.03 ± 0.00 % ID/g and the Heart ([1]; 48 h after administration) was 0.14 ± 0.03 % ID/g. The Intestine ([1]; 48 h after administration) was 0.23 ± 0.05 % ID/g, the Kidney ([1]; 48 h after administration) was 11.7 ± 3.83 % ID/g and the “LNCaP Tumor” value ([1]; 48 h after administration) was 4.92 ± 0.70 % ID/g. It also gave a Liver ([1]; 48 h after administration) of 0.58 ± 0.23 % ID/g, a Lung ([1]; 48 h after administration) of 0.40 ± 0.10 % ID/g and a Muscle ([1]; 48 h after administration) of 0.05 ± 0.04 % ID/g. The Pancreas ([1]; 48 h after administration) was 0.25 ± 0.09 % ID/g, the Spleen ([1]; 48 h after administration) was 0.83 ± 0.20 % ID/g and the “Stomach (% ID)” value ([1]; 48 h after administration) was 0.06 ± 0.03 % ID. The Blood ([1]; 96 h after administration) was 0.13 ± 0.12 % ID/g, the Brain ([1]; 96 h after administration) was 0.03 ± 0.02 % ID/g and the Heart ([1]; 96 h after administration) was 0.14 ± 0.11 % ID/g. For the same compound, the Intestine ([1]; 96 h after administration) was 0.17 ± 0.10 % ID/g, the Kidney ([1]; 96 h after administration) was 9.71 ± 10.8 % ID/g and the “LNCaP Tumor” value ([1]; 96 h after administration) was 3.35 ± 0.90 % ID/g. For the same compound, the Liver ([1]; 96 h after administration) was 1.30 ± 1.30 % ID/g, the Lung ([1]; 96 h after administration) was 0.36 ± 0.24 % ID/g and the Muscle ([1]; 96 h after administration) was 0.03 ± 0.02 % ID/g. The Pancreas ([1]; 96 h after administration) was 0.18 ± 0.12 % ID/g, the Spleen ([1]; 96 h after administration) was 0.47 ± 0.23 % ID/g and the “Stomach (% ID)” value ([1]; 96 h after administration) was 0.03 ± 0.01 % ID. For the same compound, the Blood ([1]; 192 h after administration) was 0.02 ± 0.02 % ID/g, the Brain ([1]; 192 h after administration) was 0.02 ± 0.00 % ID/g and the Heart ([1]; 192 h after administration) was 0.22 ± 0.10 % ID/g. For the same compound, the Intestine ([1]; 192 h after administration) was 0.10 ± 0.05 % ID/g, the Kidney ([1]; 192 h after administration) was 1.83 ± 0.67 % ID/g and the “LNCaP Tumor” value ([1]; 192 h after administration) was 5.16 ± 0.23 % ID/g. For the same compound, the Liver ([1]; 192 h after administration) was 0.64 ± 0.24 % ID/g, the Lung ([1]; 192 h after administration) was 0.29 ± 0.07 % ID/g and the Muscle ([1]; 192 h after administration) was 0.08 ± 0.00 % ID/g. For the same compound, the Pancreas ([1]; 192 h after administration) was 0.29 ± 0.11 % ID/g, the Spleen ([1]; 192 h after administration) was 0.88 ± 0.34 % ID/g and the “Stomach (% ID)” value ([1]; 192 h after administration) was 0.02 ± 0.01 % ID. The “radioactivity in the eluate (in words)” value [2] was “significantly higher”.
